# According to PubChem BioAssay AID1159563 (GlaxoSmithKline (GSK), 2015):
# Activity calls are given as the source filed them. No rule for the calls is given here.
# System: HepG2 cytotoxicity
# Experiment: human hepatoma cell viability loss – cytotoxicity control (AID 1159563)
row,SMILES,IC50
1,CC(C)(C)C(=O)Nc1cc(C2CC2)nn1-c1nc2c(c(=O)[nH]1)CCCC2,> 100 µM (inactive)
2,O=C(COc1ccccc1)Nc1ccccc1C(=O)Nc1nccs1,> 100 µM (inactive)
3,Cc1cc(N(C)C)nc(Nc2ccccc2C)n1,63 µM
4,CCC(=O)N1N=C(c2ccc3c(c2)CCCC3)Sc2c1ncn2C(=O)CC,> 100 µM (inactive)
5,Nc1nc(-c2ccccn2)nc(N)c1Cc1c(F)cccc1Cl,20 µM
6,CCc1nn(-c2ncc(F)c(NC(C)C)n2)c(N)c1C1CCCCC1,32 µM
7,COc1ccc(S(=O)(=O)Nc2ccccc2OC)cc1NC(=O)CCCc1c[nH]c2ccccc12,> 100 µM (inactive)
8,CCOc1ccccc1C(=O)Nc1nnc(-c2ccc3c(c2)OCO3)s1,> 100 µM (inactive)
9,COc1ccc2ncc(=O)n(CCN3CCOC(CNCc4ccc(C(F)(F)F)cc4F)C3)c2n1 (stereo not given),> 100 µM (inactive)
10,CN1C(=O)c2ccccc2Sc2ccc(NC(=O)NCc3ccco3)cc21,> 100 µM (inactive)
11,COC(=O)c1ccc(-c2cnc3ccc(NCc4ccccn4)nn23)cc1,100 µM
12,COCCn1cnc2cc(NC(=O)C3CCCCC3)cc(C(=O)N3CCc4sccc4C3)c21,> 100 µM (inactive)
13,CN(C)c1ccc(-c2cc3nccnc3c(OC[C@H]3CCCNC3)n2)cn1,63 µM
14,Cc1[nH]nc2c1C(c1ccc(OCc3ccccc3F)cc1)SCC(=O)N2 (stereo not given),> 100 µM (inactive)
15,COc1ccc(C(=O)N2CCC(Nc3cccnc3)C2)c(OC)n1 (stereo not given),> 100 µM (inactive)
16,O=C1COC(c2ccccc2)(c2ccccc2)CN1C1CCN(Cc2ccc(-n3ccnc3)cc2)CC1,50 µM
17,Cc1nc2c(-c3nc(-c4ccc(N)cc4)n[nH]3)cccn2c1C,16 µM
18,CN(C)CCOc1ccc(N2CCN(S(=O)(=O)c3ccc(Cl)cc3)CC2)cc1,50 µM
19,CC(C)(C)C(=O)NCCc1csc(-c2ccc(F)cc2)n1,> 100 µM (inactive)
20,Cc1cc2cc(CNc3ccc4c(c3)OCO4)c(=O)n(CCO)c2cc1C,> 100 µM (inactive)
21,CCCCn1nnnc1CSc1nc(C)cc(C)c1C#N,> 100 µM (inactive)
22,CS(=O)(=O)NC1CCC(Oc2cc3cnccc3cc2-c2ccsc2)CC1 (stereo not given),63 µM
23,CS(=O)(=O)c1ccc(CC(=O)Nc2nc(-c3ccc(Cl)s3)cs2)cc1,> 100 µM (inactive)
24,CC1CN(Cc2ccc(C#N)cc2)CCN1c1ccc(NC(=O)c2ccccc2F)cc1 (stereo not given),> 100 µM (inactive)
25,Cc1cc(N(C)C)nc2ccc(Cc3cnc(N)nc3N)cc12,32 µM

row,SMILES,IC50
1,CN(C)Cc1cccc(Nc2nccc(-c3ccc(NCCN)c(C#N)c3)n2)c1,25 µM
2,O=C(CN1CCC2(O)CCCCC2C1c1ccc2c(c1)OCO2)Nc1ccc(Cl)cc1Cl (stereo not given),> 100 µM (inactive)
3,Cc1nn(-c2nc(N)nc(-c3ccccn3)n2)c(N)c1-c1ccccc1,63 µM
4,Cc1ccccc1NS(=O)(=O)c1ccc2[nH]cc(C(=O)NC3CCCCC3)c(=O)c2c1,32 µM
5,CNc1cc(Cn2c(C(=O)c3cc(C)cc(Cl)c3)c(C(C)C)c(=O)[nH]c2=O)ccn1,> 100 µM (inactive)
6,COc1cccc2sc(CN(C)C(=O)C3CNCCN3c3ccc(F)cc3)c(C)c12 (stereo not given),13 µM
7,COc1ccnc2[nH]cc(-c3cc(C(=O)N[C@H](CO)c4ccccc4)co3)c12,16 µM
8,O=C(NC(CO)c1ccc(F)cc1)c1ccc(-c2c[nH]c3ncccc23)s1 (stereo not given),40 µM
9,O=c1ccc2ccc(F)c3c2n1C[C@H]3CN1CCN(CC(O)c2cc3c(cn2)OCS3)CC1 (stereo not given in full),> 100 µM (inactive)
10,Cc1nc(-c2nc(NCc3ccc(Cl)cc3)c3cccnc3c2O)n[nH]1,16 µM
11,Cn1cc(CN2CCN(c3ccc4c(c3)CCN(C(=O)[C@H]3C[C@@H]3c3ccccc3)CC4)CC2)cn1,50 µM
12,N#Cc1cccc(Nc2nccc(N3CCC(NS(=O)(=O)c4cccc(C#N)c4)CC3)n2)c1,50 µM
13,O=C(NCC1CCCCN1C(=O)c1cccc2ccccc12)c1ccccc1 (stereo not given),> 100 µM (inactive)
14,Cc1nn(-c2nc3ccccc3s2)c2c1C(c1ccc(OCC(N)=O)cc1)SCC(=O)N2 (stereo not given),> 100 µM (inactive)
15,c1ccc(-c2nc(NC3CCCC3)c3ccccc3n2)nc1,16 µM
16,CNc1cc(C)nc(C2CN(C(=O)c3n[nH]c4ccccc34)CCO2)c1 (stereo not given),> 100 µM (inactive)
17,NC(=O)c1ccc(-c2cccc(OCCN3CCN(C4CCCCC4)CC3)c2)cc1,50 µM
18,Fc1ccc(Nc2nc(-c3ccccn3)cs2)cc1,> 100 µM (inactive)
19,O=C(CSc1nnc2ccc(-c3ccc(F)cc3)nn12)N1CCCCC1,> 100 µM (inactive)
20,Nc1nc(-c2ccccc2)cc(-c2nc3ncccc3[nH]2)n1,40 µM
21,O=S1N=C(NCCCN(Cc2ccc(F)cc2)c2ccccn2)C(NCc2ccncc2)=N1 (stereo not given),79 µM
22,COc1ncc(-c2ccc3nccc(-c4ccncc4)c3c2)cc1NS(=O)(=O)C1CC1,> 100 µM (inactive)
23,NCc1csc(Nc2cc(Oc3ccccc3)ncn2)n1,> 100 µM (inactive)
24,O=C(CCCNC(=O)c1ccc(Cl)cc1)Nc1nc(-c2ccccn2)cs1,> 100 µM (inactive)
25,C[C@@H](Oc1cc(-n2cnc3ccc(CC(O)CO)cc32)sc1C(N)=O)c1ccccc1Cl (stereo not given in full),> 100 µM (inactive)
